Experimental data as given in patent US8501732B2, “Aminomethyl quinolone compounds” (Hoffmann-La Roche Inc., priority 2011, dated 2013).
Where a name gives a salt, the structure may show the parent alone.

Each molecule was assayed against JNK1 (Homo sapiens (Human), UniProt P45983) (assay: In Vitro JNK1 Assay (TR-FRET, phosphorylation of GST-c-Jun)). Conditions: not given.
JNK1, sequence (P45983 whole entry): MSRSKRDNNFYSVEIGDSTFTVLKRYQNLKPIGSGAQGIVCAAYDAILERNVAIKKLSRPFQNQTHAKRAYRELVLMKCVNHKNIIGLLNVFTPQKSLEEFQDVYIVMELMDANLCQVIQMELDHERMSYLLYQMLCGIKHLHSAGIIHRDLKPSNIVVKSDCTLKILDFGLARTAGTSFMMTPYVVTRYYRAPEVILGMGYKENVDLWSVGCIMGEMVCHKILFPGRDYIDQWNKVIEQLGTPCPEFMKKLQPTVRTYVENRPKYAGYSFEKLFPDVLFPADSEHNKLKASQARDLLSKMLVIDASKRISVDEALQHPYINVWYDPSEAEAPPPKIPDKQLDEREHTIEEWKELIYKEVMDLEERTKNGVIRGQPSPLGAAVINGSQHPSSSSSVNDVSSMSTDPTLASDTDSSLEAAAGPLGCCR
Type: biochemical
Protocol: Phosphorylation of GST-c-Jun protein (amino acid residues 1-79) was measured as JNK1 activity. […] The reaction buffer contained 50 mM HEPES, pH […], 1 mM DTT, 0.1 mM Na3VO4 and 0.2 mg/mL BSA. After 30 min. incubation at room temperature, the reaction was terminated by adding buffer containing 8 mM EDTA and a polyclonal anti-phospho-c-Jun antibody (Cell Signaling #9261L), followed by an additional incubation of 30 min. at room temperature. […] Time-resolved Fluorescence Resonance Energy Transfer (TR-FRET) signals were measured 1 hr. later on the EnVision reader (Perkin Elmer). Compound potency was assessed at 10 serially diluted concentrations. Percentage of inhibition at each concentration was determined to generate an IC50 value for each compound.
Molecule `O=C(NCc1cn(-c2ccccc2)c2cc(Cl)ccc2c1=O)NC1CCN(C(=O)Oc2ccccc2)CC1` [Example I-193, 4-[3-(7-Chloro-4-oxo-1-phenyl-1,4-dihydro-quinolin-3-ylmethyl)-ureido]-piperidine-yl-carboxylic acid phenyl ester] has an IC50 of 180 nM.

Same assay, conditions: 0.2 nM active JNK1 kinase, 26.7 nM GST-c-Jun, 2 μM ATP, 30 min at room temperature
With `COC(=O)c1c(CNC(=O)C2CCN(S(C)(=O)=O)CC2)c(=O)c2ccc(Cl)cc2n1-c1ccccc1` [Example I-131, 7-Chloro-3-{[(1-methanesulfonyl-piperidine-4-carbonyl)-amino]-methyl}-4-oxo-1-phenyl-1,4-dihydro-quinoline-2-carboxylic acid methyl ester] the IC50 was 640 nM.
With `COC(=O)c1c(CNC(=O)c2ccccn2)c(=O)c2ccc(Cl)cc2n1-c1ccccc1` [Example I-146, 7-Chloro-4-oxo-1-phenyl-3-{[(pyridine-2-carbonyl)-amino]-methyl}-1,4-dihydro-quinoline-2-carboxylic acid methyl ester] the IC50 was 100 nM.
Molecule `COC(=O)c1c(CNC(=O)C(C)C)c(=O)c2ccc(Cl)cc2n1-c1ccccc1` [Example I-147, 7-Chloro-3-(isobutyrylamino-methyl)-4-oxo-1-phenyl-1,4-dihydro-quinoline-2-carboxylic acid methyl ester] has an IC50 of 200 nM.
With `COC(=O)c1c(CNC(=O)c2ccccc2Cl)c(=O)c2ccc(Cl)cc2n1-c1ccccc1` [Example I-148, 7-Chloro-3-[(2-chloro-benzoylamino)-methyl]-4-oxo-1-phenyl-1,4-dihydro-quinoline-2-carboxylic acid methyl ester] the IC50 was 430 nM.
`COC(=O)c1c(CNC(=O)c2ccccc2OC)c(=O)c2ccc(Cl)cc2n1-c1ccccc1` [Example I-149, 7-Chloro-3-[(2-methoxy-benzoylamino)-methyl]-4-oxo-1-phenyl-1,4-dihydro-quinoline-2-carboxylic acid methyl ester] showed an IC50 of 670 nM.
Molecule `COC(=O)c1c(CNC(=O)c2ccc(N(C)C)cc2)c(=O)c2ccc(OC)cc2n1-c1ccccc1` [Example I-167, 3-[(4-Dimethylamino-benzoylamino)-methyl]-7-methoxy-4-oxo-1-phenyl-1,4-dihydro-quinoline-2-carboxylic acid methyl ester] has an IC50 of 180 nM.
`O=c1c(CNc2cc(N3CCCCC3)ncn2)cn(-c2ccccc2)c2cc(Cl)ccc12` [Example I-173, 7-Chloro-1-phenyl-3-[(6-piperidin-1-yl-pyrimidin-4-ylamino)-methyl]-1H-quinolin-4-one] gave an IC50 of 140 nM.
With `O=c1c(CNc2ccnc(N3CCCCC3)n2)cn(-c2ccccc2)c2cc(Cl)ccc12` [Example I-174, 7-Chloro-1-phenyl-3-[(2-piperidin-1-yl-pyrimidin-4-ylamino)-methyl]-1H-quinolin-4-one trifluoroacetate salt] the IC50 was 350 nM.
In the case of `O=c1c(CNc2nc3ccccc3s2)cn(-c2ccccc2)c2cc(Cl)ccc12` [Example I-175, 3-(Benzothiazol-2-ylaminomethyl)-7-chloro-1-phenyl-1H-quinolin-4-one], the IC50 is reported as 700 nM.
`O=c1c(CNc2nc3ccccc3[nH]2)cn(-c2ccccc2)c2cc(Cl)ccc12` [Example I-176, 3-[(1H-Benzoimidazol-2-ylamino)-methyl]-7-chloro-1-phenyl-1H-quinolin-4-one] gave an IC50 of 850 nM.
For `N#C/N=C(/NCc1cn(-c2ccccc2)c2cc(Cl)ccc2c1=O)N1CCOCC1` [Example I-177, [(7-Chloro-4-oxo-1-phenyl-1,4-dihydro-quinolin-3-ylmethyl)-amino]-morpholin-4-yl-methylene-cyanamide], the IC50 was 1200 nM.
In the case of `N#C/N=C(/NCc1cn(-c2ccccc2)c2cc(Cl)ccc2c1=O)Nc1ccccc1` [Example I-178, [(7-Chloro-4-oxo-1-phenyl-1,4-dihydro-quinolin-3-ylmethyl)-amino]-phenylamino-methylene-cyanamide], the IC50 is reported as 2700 nM.
In the case of `O=C(NCc1cn(-c2ccccc2)c2cc(Cl)ccc2c1=O)Oc1ccccc1` [Example I-179, (7-Chloro-4-oxo-1-phenyl-1,4-dihydro-quinolin-3-ylmethyl)-carbamic acid phenyl ester], the IC50 is reported as 2000 nM.
With `O=C(NCc1cn(-c2ccccc2)c2cc(Cl)ccc2c1=O)N1CCN(c2ccccc2)CC1` [Example I-180, 4-Phenyl-piperazine-1-carboxylic acid (7-chloro-4-oxo-1-phenyl-1,4-dihydro-quinolin-3-ylmethyl)-amide] the IC50 was 120 nM.
Molecule `CC(C)(C)OC(=O)N[C@H]1CC[C@@H](NC(=O)NCc2cn(-c3ccccc3)c3cc(Cl)ccc3c2=O)CC1` [Example I-181, {4-[3-(7-Chloro-4-oxo-1-phenyl-1,4-dihydro-quinolin-3-ylmethyl)-ureido]-cyclohexyl}-carbamic acid tert-butyl ester] has an IC50 of 200 nM.
`CC(C)(C)OC(=O)N[C@H]1CC[C@H](NC(=O)NCc2cn(-c3ccccc3)c3cc(Cl)ccc3c2=O)CC1` [Example I-182, {4-[3-(7-Chloro-4-oxo-1-phenyl-1,4-dihydro-quinolin-3-ylmethyl)-ureido]-cyclohexyl}-carbamic acid tert-butyl ester] gave an IC50 of 700 nM.
Molecule `CC(C)(C)OC(=O)N1CCC(NC(=O)NCc2cn(-c3ccccc3)c3cc(Cl)ccc3c2=O)C1` (stereo not drawn) [Example I-183, 3-[3-(7-Chloro-4-oxo-1-phenyl-1,4-dihydro-quinolin-3-ylmethyl)-ureido]-pyrrolidine-1-carboxylic acid tert-butyl ester] has an IC50 of 910 nM.
`O=C(NCc1cn(-c2ccccc2)c2cc(Cl)ccc2c1=O)NC1CCCC1` [Example I-184, 1-(7-Chloro-4-oxo-1-phenyl-1,4-dihydro-quinolin-3-ylmethyl)-3-cyclopentyl-urea] showed an IC50 of 920 nM.
Work on `COC(=O)[C@H]1CC[C@@H](NC(=O)NCc2cn(-c3ccccc3)c3cc(Cl)ccc3c2=O)CC1` [Example I-185, 4-[3-(7-Chloro-4-oxo-1-phenyl-1,4-dihydro-quinolin-3-ylmethyl)-ureido]-cyclohexanecarboxylic acid methyl ester] yielded an IC50 of 1100 nM.
`O=C(NCc1cn(-c2ccccc2)c2cc(Cl)ccc2c1=O)N1CCCC1` [Example I-186, Pyrrolidine-1-carboxylic acid (7-chloro-4-oxo-1-phenyl-1,4-dihydro-quinolin-3-ylmethyl)-amide] gave an IC50 of 1200 nM.
For `CN1CCN(C(=O)NCc2cn(-c3ccccc3)c3cc(Cl)ccc3c2=O)CC1` [Example I-187, 4-Methyl-piperazine-1-carboxylic acid (7-chloro-4-oxo-1-phenyl-1,4-dihydro-quinolin-3-ylmethyl)-amide], the IC50 was 1400 nM.
For `O=C(NCc1cn(-c2ccccc2)c2cc(Cl)ccc2c1=O)N1CCCCC1` [Example I-188, Piperidine-1-carboxylic acid (7-chloro-4-oxo-1-phenyl-1,4-dihydro-quinolin-3-yl-methyl)-amide], the IC50 was 1700 nM.
In the case of `COC(=O)[C@H]1CC[C@H](NC(=O)NCc2cn(-c3ccccc3)c3cc(Cl)ccc3c2=O)CC1` [Example I-189, 4-[3-(7-Chloro-4-oxo-1-phenyl-1,4-dihydro-quinolin-3-ylmethyl)-ureido]-cyclohexanecarboxylic acid methyl ester], the IC50 is reported as 2000 nM.
`O=C(NCc1cn(-c2ccccc2)c2cc(Cl)ccc2c1=O)N1CCC(c2ccccc2)CC1` [Example I-190, 4-Phenyl-piperidine-1-carboxylic acid (7-chloro-4-oxo-1-phenyl-1,4-dihydro-quinolin-3-ylmethyl)-amide] was tested, and the IC50 was 2100 nM.
`O=C(NCc1cn(-c2ccccc2)c2cc(Cl)ccc2c1=O)NC1C2CC3CC1CC(O)(C3)C2` (stereo not drawn) [Example I-191, 1-(7-Chloro-4-oxo-1-phenyl-1,4-dihydro-quinolin-3-ylmethyl)-3-(5-hydroxy-adamantan-2-yl)-urea] was tested, and the IC50 was 240 nM.
For `CC(C)(C)OC(=O)N1CCC(NC(=O)NCc2cn(-c3ccccc3)c3cc(Cl)ccc3c2=O)CC1` [Example I-192, 4-[3-(7-Chloro-4-oxo-1-phenyl-1,4-dihydro-quinolin-3-ylmethyl)-ureido]-piperidine-1-carboxylic acid tert-butyl ester], the IC50 was 60 nM.
In the case of `O=C(NCc1cn(-c2ccccc2)c2cc(Cl)ccc2c1=O)NC1CCN(C(=O)c2ccccc2)CC1` [Example I-194, 1-(1-Benzoyl-piperidin-4-yl)-3-(7-chloro-4-oxo-1-phenyl-1,4-dihydro-quinolin-3-yl-methyl)-urea], the IC50 is reported as 190 nM.
Molecule `O=C(NCc1cn(-c2ccccc2)c2cc(Cl)ccc2c1=O)NC1CCN(C(=O)OCc2ccccc2)CC1` [Example I-195, 4-[3-(7-Chloro-4-oxo-1-phenyl-1,4-dihydro-quinolin-3-ylmethyl)-ureido]-piperidine-1-carboxylic acid benzyl ester] has an IC50 of 580 nM.
In the case of `O=C(NCc1cn(-c2ccccc2)c2cc(Cl)ccc2c1=O)NC1CCN(S(=O)(=O)c2ccccc2)CC1` [Example I-196, 1-(7-Chloro-4-oxo-1-phenyl-1,4-dihydro-quinolin-3-ylmethyl)-3-(1-phenylsulfonyl-piperidin-4-yl)-urea], the IC50 is reported as 1100 nM.
With `CS(=O)(=O)N1CCC(NC(=O)NCc2cn(-c3ccccc3)c3cc(Cl)ccc3c2=O)CC1` [Example I-197, 1-(7-Chloro-4-oxo-1-phenyl-1,4-dihydro-quinolin-3-ylmethyl)-3-(1-methanesulfonyl-piperidin-4-yl)-urea] the IC50 was 2100 nM.
Work on `CC(=O)N1CCC(NC(=O)NCc2cn(-c3ccccc3)c3cc(Cl)ccc3c2=O)CC1` [Example I-198, 1-(1-Acetyl-piperidin-4-yl)-3-(7-chloro-4-oxo-1-phenyl-1,4-dihydro-quinolin-3-ylmethyl)-urea] yielded an IC50 of 2200 nM.
With `CS(=O)(=O)C1CCN(C(=O)N2CCC(NC(=O)NCc3cn(-c4ccccc4)c4cc(Cl)ccc4c3=O)CC2)CC1` [Example I-199, 1-(7-Chloro-4-oxo-1-phenyl-1,4-dihydro-quinolin-3-ylmethyl)-3-[1-(4-methanesulfonyl-piperidine-1-carbonyl)-piperidin-4-yl]-urea] the IC50 was 1600 nM.
